US20100113337A1, “METHOD FOR REDUCING INCIDENCE OR RATE OF DEVELOPMENT OF SKIN CANCERS AND RELATED CONDITIONS” (Clinuvel Pharmaceuticals Limited, priority 2006, published 2010)

Tests used:
[1] = tested on: Hairless albino Sh:HR-1 mice; assay: UVB induced skin carcinogenesis in hairless mice (tumour multiplicity); format: in vivo, mouse; settings: one minimal erythemal dose of UVB daily for 10 weeks; tumours counted at weeks 11, 13, 14, 15, 16 and 17; versus control group
From the text: Hairless mouse strains such as the HRA-Skh-1 mice are a standard mouse model used to study solar damage to human skin (Canfield et al., 1985—reference 1). Exposure of the hairless mouse to UV light mimics “sunburn” in humans. With continued irradiation treatment, this on-going damage is reflected in progressive thickening of the skin which histologically mimics hyperkeratinization and elastosis associated with photoaging and chronically sun-exposed skin in humans. Pre-malignant tumours begin to appear within several weeks of completion of the ultra violet light regimen. Over an ensuing time period there is a progressive development of pre-malignant and malignant tumours, the histology and behaviour of which closely mimic keratoses and pre-malignant and malignant skin cancers that develop in humans in response to sunlight.
Hairless albino Sh:HR-1 mice are divided into two groups each containing 20 animals. The first group receiving Nle^4-D-Phe^7-alpha-MSH, and the second group being a control group. Both groups receive one minimal erythemal dose of UVB light to stimulate the toxic effect of sunlight on the skin daily for 10 weeks. At weeks 11, 13, 14, 15, 16 and 17 the number of skin tumours on each animal is measured and calculated as tumour multiplicity, i.e. average number of tumours per mouse.

human volunteers = settings: cited from earlier work

In the case of “[Nle^4,D-Phe^7]-alpha-MSH [Nle^4-D-Phe^7-α-MSH]”, the “protection against UVB induced carcinogenesis (tumour multiplicity, average number of tumours per mouse)” value [1] is listed as “Protection against UVB induced carcinogenesis is observed” and the “induction of melanin synthesis” value (human volunteers) is listed as “can induce melanin synthesis”.
